Test results taken from patent US20060121040A1, “Compositions and methods for treating neuroendocrine tumors” (Wisconsin Alumni Research Foundation, priority 2004, published 2006).
Entries after “also recorded” stand apart in the source; their conditions may differ. Read-outs that look alike come from different tables or passages of the source.

Experiments:
p21 = test: Western analysis of cell cycle inhibitor p21 in H727 cells; assay type: cell-based, human; settings: 20 and 100 μmol/L, 2 days
Method: (§5) Cellular extracts were prepared and quantified by bicinchoninic acid protein assay kit (Pierce, Rockford, Ill.) as previously described (Sippel & Chen, Surgery 2002;132:1035-9). Denatured proteins (30-50 μg) from each sample underwent electrophoresis on a SDS polyacrylamide gel and transferred to a nitrocellulose membranes (Schleicher and Schuell, Keene, N.H.). Membranes were blocked for 1 hour in milk solution (1×PBS, 5% nonfat dry milk, 0.05% Tween 20) and incubated at 4° C. overnight with primary antibodies. The following primary antibody dilutions were used: phospho-ERK1/2 (1:1,000), phospho-MEK (1:1,000), phospho-Raf-1 (Ser338; 1:1,000), p21 and p18, (1:1,000) (Cell Signaling Technology, Beverly, Mass.), Chromogranin A (1:2,000; Zymed Laboratories, San Francisco, Calif.), MASH-1 (1:1000, BD Pharmingen, San Diego, Calif.), and G3PDH (1:10,000; Trevigen, Gaithersburg, Md.). After primary antibody incubation, membranes were washed 3×5 minutes in PBS-T wash buffer (1×PBS and 0.05% Tween 20). Then the membranes were incubated with either 1:2,000 dilution of goat anti-rabbit or goat anti-mouse secondary antibody (Cell Signaling Technology) depending on the source of the primary antibody for 1 hour at room temperature. […]

H727 cells [1] = test: Drug toxicity assay, propidium iodide exclusion, H727 cells; assay type: cell-based, human
Method: Briefly, cells were trypsinized and plated in a 6-well plate at 1 to 2×10^6 in triplicate and allowed to adhere overnight. […] As a control, DMSO was added. After incubation, the medium was removed and cells were trypsinized and added to removed medium. Cells were incubated on ice and 2.5 Ag/mL propidium iodide (Sigma) was added 5 minutes before flow cytometry (17). Data was acquired using a FACSCalibur bench top flow cytometer (Becton Dickinson, San Jose, Calif.) using CellQuest acquisition and analysis software.

Raf-1/MEK/ERK system [2] = test: Western analysis for Raf-1 pathway activation in H727 cells; assay type: cell-based, human
Method: (§1) H727 and BON cells were plated at 50% to 60% confluence in 100-mm cell culture dishes and incubated overnight. Cells were treated with ZM336372 (BioMol, Plymouth Meeting, Pa.) in different concentrations for up to 6 days. Of note, treatments were done in serum-containing medium. Furthermore, the DMSO concentration never exceeded 2% in all treatment groups. ZM336372 at 500 μmol/L concentrations were used only in the toxicity experiments. Stock ZM336372 was made at higher concentration to reduce DMSO toxicity.

H727 cells [3] = test: Cytotoxicity assay (Cell Titer Glo), H727 cells; assay type: cell-based, human; settings: ZM336372 tested 0 to 200 μmol/L
Method: (§2) Cells (H727 and BON) were harvested by trypsinization and plated at a cell density of 3,000 cells per well of each microtiter plate. Cells were grown for 4 hours at 37° C. to allow cell attachment to occur before compound addition. Doxorubicin (control) and ZM336372 were dissolved in DMSO. […] Treatments were done in duplicate. Cells were incubated with the test compounds for 72 hours before reading the assay. Then processing and calculation were done according to manufacturer's directions for Cell Titer Glo Assay (Promega, Madison, Wis.).

Raf-1/MEK/ERK system [4] = test: Western analysis for Raf-1 pathway activation in BON cells; assay type: cell-based, human; settings: increasing doses (20 and 100 μmol/L), 2 d
Method: as §1

BON cells [5] = test: Cytotoxicity assay (Cell Titer Glo), BON cells; assay type: cell-based, human; settings: 72 hours, ZM336372 tested 0 to 200 μmol/L
Method: as §2

chromogranin A [6] = test: Western analysis of chromogranin A in H727 cells; assay type: cell-based, human
Method: as §1
(§3) Changes in chromogranin A levels are known to be concordant with alterations in other neuroendocrine hormones such as histamine and serotonin (Sippel & Chen, Surgery 2002;132:1035-9). Additionally, hASH1 is expressed in most neuroendocrine tumors and correlates with neuroendocrine hormone levels as previously described. Therefore, to determine if ZM336372 can reduce chromogranin A and hASH1, pulmonary H727 and gastrointestinal BON carcinoid cells were treated with ZM336372. […] Furthermore, to determine when chromogranin A depletion occurs, H727 cells were treated with ZM336372 at different time intervals.

ERK1/2 = test: Phosphorylated ERK1/2 in NE tumor cells (BON and TT) treated with ZM336372 (FIG. 7); assay type: cell-based, human; settings: ZM336372 0-50 μM
hASH1 [7] = test: Western analysis of hASH1 in BON cells; assay type: cell-based, human; settings: 20 and 100 μmol/L, 2 d
Method: as §1, §3

BON cells [8] = test: Cell proliferation assay (MTT) in BON cells; assay type: cell-based, human; settings: 100 μmol/L vs DMSO, day 4 to day 10
Method: (§4) Cells were trypsinized and plated in triplicate to 24-well plates and allowed to adhere overnight. […] Media were changed every 2 days with new treatment. […] Absorbance was determined using spectrophotometer at a wavelength of 540 nm.

chromogranin A [9] = test: Western analysis of chromogranin A in BON cells; assay type: cell-based, human; settings: 20 and 100 μmol/L, 2 d
Method: as §1, §3

hASH1 [10] = test: Western analysis of hASH1 in H727 cells; assay type: cell-based, human
Method: as §1, §3

BON cells [11] = test: Drug toxicity assay, propidium iodide exclusion, BON cells; assay type: cell-based, human; settings: 63 to 500 μmol/L, 2 days
Method: Briefly, cells were trypsinized and plated in a 6-well plate at 1 to 2×10^6 in triplicate and allowed to adhere overnight. Then the media was replaced with fresh media containing various concentrations (31.25, 62.5, 125, 250, and 500 μmol/L) of ZM336372 and incubated for up to 3 days. As a control, DMSO was added. After incubation, the medium was removed and cells were trypsinized and added to removed medium. Cells were incubated on ice and 2.5 Ag/mL propidium iodide (Sigma) was added 5 minutes before flow cytometry (17). Data was acquired using a FACSCalibur bench top flow cytometer (Becton Dickinson, San Jose, Calif.) using CellQuest acquisition and analysis software.

p18 = test: Western analysis of cell cycle inhibitor p18 in H727 cells; settings: 20 and 100 μmol/L, 2 days
Method: as §5

[12] = tested on: medullary thyroid cancer TT cells; test: Cellular growth of medullary thyroid cancer cells; assay type: cell-based, human
H727 cells [13] = test: Cell proliferation assay (MTT) in H727 cells; assay type: cell-based, human; settings: 100 μmol/L vs DMSO, up to 16 days, serum-containing medium
Method: as §4

GSK3B = target: T1, GSK3B (Homo sapiens, UniProt P49841); test: Phosphorylated GSK3B in NE tumor cells (BON and TT) treated with ZM336372 (FIG. 7); assay type: cell-based; settings: ZM336372 0-50 μM
T1 construct: treatment of NE tumor cells with ZM336372 (0-50 μM); endogenous in cells; host or cells: BON and TT cells

[14] = tested on: human achaete-scute homolog-1 (hASH1); test: NE marker hASH1 in medullary thyroid cancer TT cells; assay type: cell-based; settings: SB216763 0-50 μM
chromogranin A (CgA) = test: NE marker chromogranin A in medullary thyroid cancer TT cells; assay type: cell-based, human; settings: SB216763 0-50 μM

T1 sequence (P49841 whole entry): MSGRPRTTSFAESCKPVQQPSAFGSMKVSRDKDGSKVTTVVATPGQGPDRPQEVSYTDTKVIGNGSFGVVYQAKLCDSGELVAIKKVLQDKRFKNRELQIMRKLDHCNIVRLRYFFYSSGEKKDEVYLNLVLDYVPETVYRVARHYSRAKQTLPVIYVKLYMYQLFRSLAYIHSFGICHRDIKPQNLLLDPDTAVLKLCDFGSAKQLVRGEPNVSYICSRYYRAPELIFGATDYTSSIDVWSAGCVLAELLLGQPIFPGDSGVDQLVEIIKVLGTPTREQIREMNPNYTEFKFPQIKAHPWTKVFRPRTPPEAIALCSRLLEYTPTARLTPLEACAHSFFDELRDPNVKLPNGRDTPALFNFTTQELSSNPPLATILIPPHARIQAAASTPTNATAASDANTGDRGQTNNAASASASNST

## Cc1ccc(NC(=O)c2cccc(N(C)C)c2)cc1NC(=O)c1ccc(O)cc1 [ZM336372]
p21
  p21 expression: induced; also recorded: significant induction
H727 cells [1]; 20-100 μmol/L
  cytolysis: < 20%
H727 cells [1]; H727, 20 to 100 μmol/L vs DMSO, 2 d
  viability: significant viability was maintained
Raf-1/MEK/ERK system [2]; 100 μmol/L
  MEK1/2 phosphorylation at days 4 and 6: sustained; also recorded: greater than controls out to 6 d
Raf-1/MEK/ERK system [2]; 20 and 100 μmol/L, 2 days
  Raf-1 phosphorylation at Ser338: phosphorylated; also recorded: dose-dependent increases
Raf-1/MEK/ERK system [2]; 20 and 100 μmol/L, 2 days, vs DMSO
  MEK1/2 and ERK1/2 phosphorylation: activation; also recorded: dose-dependent increases
H727 cells [3]; 72 hours
  IC50: did not produce enough cellular cytotoxicity to estimate an IC50
Raf-1/MEK/ERK system [4]
  ERK1/2 and MEK1/2 phosphorylation: strong activation; also recorded: dose-dependent increases
BON cells [5]
  IC50: did not produce enough cellular cytotoxicity to estimate an IC50
Chromogranin A [6]; 100 μmol/L
  time of greatest comparative loss of chromogranin A: 48 h
Chromogranin A [6]; 100 μmol/L vs DMSO
  lasting effect on chromogranin A (days 2, 4 and 6): maintained to 6 days; also recorded: persistent reduction
Chromogranin A [6]; 100 μmol/L, 10 min, 1, 12, 24, 48 h
  earliest detection of reduction of chromogranin A: 1 h
Chromogranin A [6]; 20 and 100 μmol/L, 2 d
  chromogranin A level: reduction; also recorded: dose-dependent decrease
ERK1/2
  levels of phosphorylated ERK1/2: increased levels
hASH1 [7]
  hASH1 level: reduction; also recorded: dose-dependent decrease
BON cells [8]
  cell proliferation: growth suppression; also recorded: inhibited
Chromogranin A [9]
  chromogranin A level: reduction; also recorded: dose-dependent decrease
hASH1 [10]; 100 μmol/L
  first recognized reduction in hASH1: 1 h
hASH1 [10]; 20 and 100 μmol/L, 2 d
  hASH1 level: reduction; also recorded: dose-dependent decrease
BON cells [11]
  cells remaining viable: ~70%
p18
  p18 expression: induced; also recorded: significant induction
[12]; ZM336372, medullary thyroid cancer cells, data not shown
  growth of other neuroendocrine tumor cell lines: inhibited growth
H727 cells [13]
  cell proliferation: growth suppressed; also recorded: inhibited
GSK3B
  levels of phosphorylated GSK3B: increased levels

## COc1cccc2c1C(=O)c1c(O)c3c(c(O)c1C2=O)C[C@@](O)(C(=O)CO)C[C@@H]3O[C@H]1C[C@H](N)[C@H](O)[C@H](C)O1 [doxorubicin]
H727 cells [3]; Homo sapiens, NCI-H727, 72 hours, read-out: IC50
  IC50: 1100 nM
BON cells [5]; Homo sapiens, read-out: IC50
  IC50: 1400 nM

## Cn1cc(C2=C(c3ccc(Cl)cc3Cl)C(=O)NC2=O)c2ccccc21 [SB216763]
[14]
  hASH1: suppression; also recorded: reduction
Chromogranin A (CgA)
  chromogranin A production: suppression; also recorded: reduction
[12]; SB216763 0-50 μM
  TT cell growth: suppression
